Source: ChEMBL document CHEMBL3862001, “Tetrahydropyrazolo[4,3-c]pyridine derivatives as potent and peripherally selective cannabinoid-1 (CB1) receptor inverse agonists” (Bioorg Med Chem Lett, 2016)

Columns and labels:
Cannabinoid receptor 1 = Cannabinoid receptor 1 (Homo sapiens, UniProt P21554); test: Inverse agonist activity at human CB1 receptor transfected in HEK293 cells assessed as increase of forskolin-induced cAMP production incubated for 30 mins followed by d2 labeled cAMP addition measured after 60 mins by HTRF assay; type: functional, cell-based
Chain of Cannabinoid receptor 1 (P21554 whole entry): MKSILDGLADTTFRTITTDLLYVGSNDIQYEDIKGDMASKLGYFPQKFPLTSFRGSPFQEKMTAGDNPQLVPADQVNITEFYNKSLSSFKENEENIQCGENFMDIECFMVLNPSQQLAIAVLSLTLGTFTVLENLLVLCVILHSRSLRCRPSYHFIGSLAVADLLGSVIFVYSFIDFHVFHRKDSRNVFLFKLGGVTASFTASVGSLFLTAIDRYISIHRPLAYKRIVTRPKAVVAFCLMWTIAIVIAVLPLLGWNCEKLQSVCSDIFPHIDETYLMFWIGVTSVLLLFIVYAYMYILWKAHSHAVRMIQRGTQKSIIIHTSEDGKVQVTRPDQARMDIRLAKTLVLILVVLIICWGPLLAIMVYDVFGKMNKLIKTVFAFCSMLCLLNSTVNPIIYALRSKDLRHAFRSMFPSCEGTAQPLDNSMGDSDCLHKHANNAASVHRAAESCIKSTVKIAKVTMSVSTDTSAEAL

Cannabinoid receptor 2 = Cannabinoid receptor 2 (Homo sapiens, UniProt P34972); test: Inverse agonist activity at human CB2 receptor transfected in HEK293 cells assessed as increase of forskolin-induced cAMP production incubated for 30 mins followed by d2 labeled cAMP addition measured after 60 mins by HTRF assay; type: functional, cell-based
Chain of Cannabinoid receptor 2 (P34972 whole entry): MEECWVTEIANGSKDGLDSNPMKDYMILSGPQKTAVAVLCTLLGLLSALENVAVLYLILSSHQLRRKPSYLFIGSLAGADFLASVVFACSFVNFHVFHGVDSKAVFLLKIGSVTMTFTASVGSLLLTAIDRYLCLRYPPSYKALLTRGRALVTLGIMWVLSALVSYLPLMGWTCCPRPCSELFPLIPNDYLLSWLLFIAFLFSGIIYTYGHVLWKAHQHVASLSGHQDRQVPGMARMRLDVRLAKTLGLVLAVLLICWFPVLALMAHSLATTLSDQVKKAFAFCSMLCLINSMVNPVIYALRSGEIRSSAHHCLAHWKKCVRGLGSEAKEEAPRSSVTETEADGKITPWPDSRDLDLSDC

[1] = Plasma concentration in C57BL/6J mouse at 20 mg/kg, po measured at 4 hrs; type: ADME, organism-based
[2] = Drug uptake in C57BL/6J mouse brain at 20 mg/kg, po measured at 4 hrs; type: ADME, organism-based; conditions: for Drug uptake: in vivo, 4 h
[3] = Plasma concentration in C57BL/6J mouse at 20 mg/kg, po measured at 2 hrs; type: ADME, organism-based
[4] = Drug uptake in C57BL/6J mouse brain at 20 mg/kg, po measured at 2 hrs; type: ADME, organism-based; conditions: for concentration at 2 h: C57BL/6J, brain, read-out: Drug uptake; for Drug uptake: in vivo, 2 h
[5] = Plasma concentration in C57BL/6J mouse at 30 mg/kg, po measured at 4 hrs; type: ADME, organism-based
[6] = Drug uptake in C57BL/6J mouse brain at 30 mg/kg, po measured at 4 hrs; type: ADME, organism-based; conditions: read-out: Drug uptake
[7] = Ratio of drug level in brain to plasma in C57BL/6J mouse at 20 mg/kg, po measured at 4 hrs; type: ADME, organism-based; conditions: read-out: BPR
[8] = Ratio of drug level in brain to plasma in C57BL/6J mouse at 20 mg/kg, po measured at 2 hrs; type: ADME, organism-based; conditions: read-out: BPR
[9] = Ratio of drug level in brain in C57BL/6J mouse at 20 mg/kg, po measured at 4 hrs to drug level in plasma in C57BL/6J mouse at 20 mg/kg, po measured at 2 hrs; type: ADME, organism-based; conditions: read-out: BPR

Row | SMILES | EC50 (Cannabinoid receptor 1) [nM] | EC50 (Cannabinoid receptor 2) [nM] | concentration at 4 h [1] [nM] | concentration at 4 h ([2]; C57BL/6J, brain, read-out: Drug uptake) [ng/mL] | concentration at 2 h [3] [nM] | concentration at 2 h [4] [ng/mL] | concentration at 4 h [5] [nM] | concentration at 4 h [6] [ng/mL] | Drug uptake [2] [nmol/g] | Kp at 4 h [7] | Drug uptake [4] [nmol/g] | Kp at 2 h [8] | Kp [9]
1 | COc1ccc(/C=C2\CN(C(=O)Cn3ccnc3)Cc3c(C(=O)N[C@H](C)c4ccccc4)nn(-c4ccc(Cl)cc4Cl)c32)cc1 | 5 | 370 |  |  | 580 | < 5 |  |  |  |  |  |  | 
2 | C[C@@H](NC(=O)c1nn(-c2ccc(Cl)cc2Cl)c2c1CN(C(=O)CCC(N)=O)C/C2=C\c1ccc(F)cc1)c1ccccn1 | 20 | > 10000 | 4250 |  |  |  |  |  | 0.12 | 0.03 |  |  | 
3 | C[C@@H](NC(=O)c1nn(-c2ccc(Cl)cc2Cl)c2c1CN(C(=O)c1nc[nH]n1)C/C2=C\c1ccc(F)cc1)c1ccccc1 | 15 | 1310 |  |  | 4480 |  |  |  |  |  | 0.25 | 0.06 | 
4 | C[C@@H](NC(=O)c1nn(-c2ccc(Cl)cc2)c2c1CN(C(=O)c1nc[nH]n1)C/C2=C\c1ccc(Cl)cc1)c1ccccn1 | 28 | > 10000 |  |  | 2380 |  |  |  |  |  | 0.1 | 0.04 | 
5 | COc1ccc(/C=C2\CN(C(=O)c3cc[nH]n3)Cc3c(C(=O)N[C@H](C)c4ccccc4)nn(-c4ccc(Cl)cc4Cl)c32)cc1 | 32 | 4660 |  |  | 1720 | < 5 |  |  |  |  |  |  | 
6 | C[C@@H](NC(=O)c1nn(-c2ccc(Cl)cc2)c2c1CN(C(=O)CNS(C)(=O)=O)C/C2=C\c1ccc(F)cc1)c1ccccn1 | 30 | > 10000 | 1720 |  |  |  |  |  | 0.09 | 0.05 |  |  | 
7 | C[C@@H](NC(=O)c1nn(-c2ccc(Cl)cc2)c2c1CN(C(=O)c1nc[nH]n1)C/C2=C\c1ccc(Cl)cc1)c1ccccc1 | 17 | > 10000 |  |  | 9780 |  |  |  |  |  | 0.47 | 0.05 | 
8 | C[C@@H](NC(=O)c1nn(-c2ccc(Cl)cc2Cl)c2c1CN(C(=O)[C@@H](O)CO)C/C2=C\c1ccc(Cl)cc1)c1ccccn1 | 22 | 5550 | 2410 |  |  |  |  |  | 0.18 | 0.08 |  |  | 
9 | C[C@@H](NC(=O)c1nn(-c2ccc(Cl)cc2Cl)c2c1CN(C(=O)CNS(C)(=O)=O)C/C2=C\c1ccc(Cl)cc1)c1ccccn1 | 17 | > 10000 | 3320 |  |  |  |  |  | 0.17 | 0.05 |  |  | 
10 | C[C@@H](NC(=O)c1nn(-c2ccc(Cl)cc2Cl)c2c1CN(C(=O)[C@@H](O)CO)C/C2=C\c1ccc(Cl)cc1)c1ccccc1 | 18 | 2910 | 2770 |  |  |  |  |  | 0.17 | 0.06 |  |  | 
11 | COc1ccc(/C=C2\CN(C(=O)CN)Cc3c(C(=O)N[C@H](C)c4ccccc4)nn(-c4ccc(Cl)cc4Cl)c32)cc1 | 24 | > 10000 | 1530 |  |  |  |  |  | 0.07 | 0.04 |  |  | 

Results, then the compound that gave them:

Row | EC50 (Cannabinoid receptor 1) [nM] | EC50 (Cannabinoid receptor 2) [nM] | concentration at 4 h [1] [nM] | concentration at 4 h ([2]; C57BL/6J, brain, read-out: Drug uptake) [ng/mL] | concentration at 2 h [3] [nM] | concentration at 2 h [4] [ng/mL] | concentration at 4 h [5] [nM] | concentration at 4 h [6] [ng/mL] | Drug uptake [2] [nmol/g] | Kp at 4 h [7] | Drug uptake [4] [nmol/g] | Kp at 2 h [8] | Kp [9] | SMILES
12 | 11 | 1940 | 90 | < 5 |  |  |  |  |  |  |  |  |  | COc1ccc(/C=C2\CN(C(=O)CC(=O)O)Cc3c(C(=O)N[C@H](C)c4ccccn4)nn(-c4ccc(Cl)cc4Cl)c32)cc1
13 | 9 | > 10000 |  |  |  |  | 2290 | < 5 |  |  |  |  |  | C[C@@H](NC(=O)c1nn(-c2ccc(Cl)cc2Cl)c2c1CN(C(=O)CC(N)=O)C/C2=C\c1ccc(F)cc1)c1ccccn1
14 | 6 | 8610 | 2280 |  |  |  |  |  | 0.07 | 0.03 |  |  |  | C[C@@H](NC(=O)c1nn(-c2ccc(Cl)cc2Cl)c2c1CN(C(=O)Cn1cnnn1)C/C2=C\c1ccc(F)cc1)c1ccccn1
15 | 7 | 3660 | 2820 |  |  |  |  |  | 0.15 | 0.05 |  |  |  | C[C@@H](NC(=O)c1nn(-c2ccc(Cl)c(Cl)c2)c2c1CN(C(=O)Cn1cnnn1)C/C2=C\c1ccc(F)cc1)c1ccccn1
16 | 8 | 1450 | 2090 |  |  |  |  |  | 0.08 | 0.04 |  |  |  | COc1ccc(/C=C2\CN(C(=O)CS(N)(=O)=O)Cc3c(C(=O)N[C@H](C)c4ccccn4)nn(-c4ccc(Cl)cc4Cl)c32)cc1
17 | 4 | 1270 |  |  | 30 | < 5 |  |  |  |  |  |  |  | COc1ccc(/C=C2\CN(C(=O)Cn3ccnn3)Cc3c(C(=O)N[C@H](C)c4ccccc4)nn(-c4ccc(Cl)cc4Cl)c32)cc1
18 | 6 | 650 | 1360 |  |  |  |  |  | 0.05 | 0.04 |  |  |  | COc1ccc(/C=C2\CN(C(=O)CCS(N)(=O)=O)Cc3c(C(=O)N[C@H](C)c4ccccn4)nn(-c4ccc(Cl)cc4Cl)c32)cc1
19 | 6 | 7850 | 4600 |  |  |  |  |  | 0.35 | 0.08 |  |  |  | C[C@@H](NC(=O)c1nn(-c2ccc(Cl)c(Cl)c2)c2c1CN(C(=O)Cn1cncn1)C/C2=C\c1ccc(Cl)cc1)c1ccccn1
20 | 6 | 1130 |  |  | 2960 |  |  |  |  |  | 0.07 | 0.02 |  | COc1ccc(/C=C2\CN(C(=O)Cn3cnnn3)Cc3c(C(=O)N[C@H](C)c4ccccc4)nn(-c4ccc(Cl)cc4Cl)c32)cc1
21 | 15 | 1760 |  |  | 1480 |  |  |  |  |  | 0.05 | 0.03 |  | COc1ccc(/C=C2\CN(C(=O)c3nc[nH]n3)Cc3c(C(=O)N[C@H](C)c4ccccc4)nn(-c4ccc(Cl)cc4Cl)c32)cc1
22 | 12 | > 10000 |  |  | 1320 |  |  |  |  |  | 0.09 | 0.07 |  | C[C@@H](NC(=O)c1nn(-c2ccc(Cl)cc2)c2c1CN(C(=O)c1nc[nH]n1)C/C2=C\c1ccc(F)cc1)c1ccccc1
23 | 8 | 3240 |  |  | 9190 |  |  |  | 0.43 |  |  |  | 0.05 | C[C@@H](NC(=O)c1nn(-c2ccc(Cl)cc2Cl)c2c1CN(C(=O)Cn1cnnn1)C/C2=C\c1ccc(F)cc1)c1ccccc1
